The values below come from patent US20190209548A1, “LINKED DIARYL COMPOUNDS WITH ANTICANCER PROPERTIES AND METHODS OF USING THE SAME” (University of Maryland, College Park, priority 2014, published 2019).

Each structure is given as a SMILES string. Read-outs that look alike come from different tables or passages of the source.

One data set deals with OVCAR-3. The data set is described as follows: WST-1 IC50 determination, OVCAR-3. It is filed as cell-based, human. Here is the method:
(§1) Cell lines and culturing. The following human cell lines were purchased from ATCC (ATCC, Manassas, Va.): prostate cancer cells (PC-3), triple negative breast cancer cells (MDA-MB-231), ovarian cancer cells (OVCAR-3), normal bone marrow (NBM) and normal fibroblast cells (MCR5A). MDA-MB-231 cells were grown at 37° C. with 5% CO2 atmosphere with DMEM (Life technologies, Carlsbad, Calif.) supplemented with heat-inactivated 10% (V/V) fetal bovine serum. OVCAR-3 and PC-3 cells were grown at 37° C. with 5% CO2 atmosphere with RPMI (Life technologies, Carlsbad, Calif.) supplemented with heat-inactivated 10% (V/V) fetal bovine serum. Cell lines were grown and maintained according to ATCC recommendations.
(§2) IC50 determination. Cell lines were seeded into 96-well plates the afternoon prior to treatment. Cell seeding number was determined by growing cells in log phase growth during drug treatment. Approximately 18 hours later, compounds were semi-serially diluted in dimethyl sulfoxide (DMSO) and then growth medium, and added to cells. Plates were incubated for 72 hours prior to addition of WST-1 (Promega, Madison Wis.). Plates were read after 4 additional hours of incubation at 37° C. using a Bio-Tek Synergy HT plate reader (Bio-Tek, Winooski, Vt.). Data was analyzed, graphed and IC50s generated using GraphPad Prism Software (Graphpad, La Jolla, Calif.).
(§3) IC50 determination: For the determination of IC50 for the azolamide class, the same protocol as described previously was followed.

The test system of the next data set is c-MYC Pu27. The data set is described as follows: PCR stop assay, Pu27 template. The class given is biochemical. The note with it: 10 μM compound. Here is the method: (§4) PCR Stop Assay. This assay was performed by modifying a previously published protocol.
(§5) To the PCR reaction mixture (25 μL), 1×PCR buffer (New England Biolabs), 5 μM Pu27 and Pu27rev oligomers, various concentrations of ligands (DMZ, TMPyP4, DMZ1, DMZ9 and DMZ13) were added and incubated at 4° C. for 6 h. After that, 1 mM dNTPs, 5 units of Taq DNA polymerase (New England Biolabs) were added and PCR reactions were performed in a thermocycler, with the following conditions: 94° C. for 3 min, followed by 20 repeated cycles each having 94° C. for 30 s, 58° C. for 30 s, and 72° C. for 30 s. After PCR, amplified products were analyzed on 12% polyacrylamide gel with 1×TBE and SYBR Gold stained. This assay was also performed under the same conditions with Pu27-13,14 and Pu27rev.

For the next data set, the system named is c-MYC. The data set is described as follows: FRET melting assay, c-MYC. It is filed as binding. The note with it: 0.2 μM dual-labeled DNA and 0.2 μM TMPyP4.
For a further data set, the system named is c-kit2. The data set is described as follows: FRET melting assay, c-kit2. It is filed as binding. The note with it: 0.2 μM dual-labeled DNA and 0.2 μM TMPyP4.
A further data set concerns NBM. The data set is described as follows: WST-1 IC50 determination, normal bone marrow. The class given is cell-based, human. As to the method:
as §1, §2, §3
Background: Formazan colour is commonly taken as a measure of viable cells.

Another data set relates to MDA-MB-231. The data set is described as follows: WST-1 IC50 determination, MDA-MB-231. The class given is cell-based, human. Here is the method: as §1, §2, §3
A further data set has as its system PC-3. The data set is described as follows: WST-1 IC50 determination, PC-3. The class given is cell-based, human. As to the method: as §1, §2, §3
For another data set, the system named is k-RAS21R. The data set is described as follows: FRET melting assay, k-RAS21R. It is filed as binding. The conditions noted are these: 0.2 μM dual-labeled DNA and 0.2 μM TMPyP4.
The test system of another data set is MCR5A. The data set is described as follows: WST-1 IC50 determination, normal fibroblast. It is filed as cell-based, human. The conditions noted are these: normal fibroblast cell, 72 hours, read-out: IC50 ± SD, MCR5A. As to the method:
as §1, §2

In another data set the test system is duplex. The data set is described as follows: FRET melting assay, duplex DNA. It is filed as binding. The conditions noted are these: 0.2 μM dual-labeled DNA and 0.2 μM TMPyP4.
The next data set deals with Pu27-13,14. The data set is described as follows: PCR stop assay, mutated control template. It is filed as biochemical. The conditions noted are these: 10 μM compound. Here is the method:
as §4, §5

Another data set has as its system G-quadruplexes. The note with it: binding of classic G-tetrad-motif ligand to G-quadruplexes; cited from earlier work.
A further data set has as its system F21T. The data set is described as follows: FRET melting assay, F21T. The class given is binding. The note with it: 0.2 μM dual-labeled DNA and 0.2 μM TMPyP4.
Another data set has as its system MOLM14. The data set is described as follows: WST-1 IC50 determination, MOLM14. The note with it: Homo sapiens, MOLM-14. The class given is cell-based. As to the method: as §2, §3
A further data set relates to THP1. The data set is described as follows: WST-1 IC50 determination, THP1. The class given is cell-based. The note with it: Homo sapiens, THP-1; THP1, 72 h; read-out: IC50 for killing Leukemia cell line. Here is the method:
as §2, §3

A further data set concerns U87. The data set is described as follows: IC50 determination, U87. It is filed as cell-based. The note with it: Homo sapiens, U-87 MG; Glioblastoma; read-out: Anticancer activities, U87. As to the method: as §2, §3
A short description of the next data set: Tolerability studies. It is filed as in vivo. The note with it: mice, 10 mg/Kg.
Data set [1] can be described thus: Human liver microsome stability. The class given is in vitro ADME. The conditions noted are these: human, liver microsomes. The source says:
An established method to determine the pharmacokinetic clearance of a compound in humans is to measure the degradation of the compound in the presence of human liver microsomes. The following is the half-lives of the four compounds in human liver microsomes: […]
Background: Microsomes from liver hold many membrane-bound enzymes, among them those of drug oxidation.

The subject of another data set is MV4-11. The data set is described as follows: IC50 determination, MV4-11. The conditions noted are these: Homo sapiens, Acute monocyctic leukemia, read-out: Anticancer activities, MV4-11. It is filed as cell-based. As to the method:
as §2, §3

In the case of `C[n+]1ccc(-c2c3nc(c(-c4cc[n+](C)cc4)c4ccc([nH]4)c(-c4cc[n+](C)cc4)c4ccc([nH]4)c(-c4cc[n+](C)cc4)c4nc2C=C4)C=C3)cc1` [TMPyP4, reference compound], the IC50 in the data set on OVCAR-3 (72 hours, WST-1, read-out: Anticancer activity IC50 ± SD, OVCAR-3) is 14600 ± 5700 nM; in the data set with NBM (normal bone marrow, 72 hours, WST-1, read-out: IC50 ± SD, NBM), 16800 nM; in the data set with MDA-MB-231 (72 hours, WST-1, read-out: Anticancer activity IC50 ± SD, MDA-MB-231), 14300 ± 4000 nM; in the data set on PC-3 (72 hours, WST-1, read-out: Anticancer activity IC50 ± SD, PC-3), 14000 ± 5400 nM; in the data set on MCR5A, 15200 ± 6600 nM. Besides, the “polymerization/extension of oligomers Pu27 and Pu27rev” value in the data set with c-MYC Pu27 is “showed inhibition”. Besides, in the data set with c-MYC, the “ΔTm c-MYC” value worked out at 23.75 ± 0.52 °C. For the same molecule, in the data set on c-kit2, the “ΔTm c-kit2” value came to 3.46 ± 1.03 °C. The “ΔTm k-RAS21R” value in the data set with k-RAS21R was determined as 34.71 ± 0.93 °C. Besides, in the data set with duplex, the ΔTm duplex is 1.14 ± 0.52 °C. Besides, the “PCR product with non-G-quadruplex template” value with Pu27-13,14 is given as “no PCR product was observed”. Further, in the data set on G-quadruplexes, the Ka result is given as “≈ 5×10^6 M^−1”. Also, the “ΔTm F21T” value in the data set with F21T is 4.01 ± 0.26 °C.
Regarding `N=C(N)c1ccc(/N=N/c2c(N)ncc3ccccc23)cc1` [HSW308-4], the IC50 in the data set on MOLM14 (MOLM14, 72 h, read-out: IC50 for killing Leukemia cell line) amounted to 980 nM; in the data set on MOLM14 (leukemia, read-out: Anticancer activities, Molm14), 980 nM; in the data set with OVCAR-3 (Homo sapiens, OVCAR-3, read-out: IC50 for killing ovarian cancer cell line (OVCAR-3)) it was 4200 nM; with THP1, 2600 nM; with NBM (Homo sapiens, Bone marrow cell, Normal bone marrow cells, read-out: Anticancer activities, NBM), 8700 nM; with MDA-MB-231 (Homo sapiens, MDA-MB-231, read-out: IC50 for killing triple negative breast cancer cell line (231)) it was 1900 nM. Also, the IC50 was 1850 nM in the data set with MDA-MB-231 (Homo sapiens, MDA-MB-231, triple negative breast cancer, read-out: Anticancer activities, TNBC 231); 1300 nM in the data set on PC-3 (Homo sapiens, PC-3, prostate cancer, read-out: Anticancer activities, PC3); 1000 nM with PC-3 (Homo sapiens, PC-3, read-out: IC50 for killing prostate cancer cell line (PC-3)); 1320 nM with U87; 920 nM in the data set on MV4-11. In “Tolerability studies”, the tolerability entry was “can be tolerated”. For the same molecule, the half-life is 3.27 h in data set [1] (read-out: NADPH-dependent T½) and more than 4 h in data set [1] (read-out: NADPH-independent T½).
